Results as given in ChEMBL document CHEMBL1201862, “PubChem BioAssay data set” (2004).
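Grown in 96-well plates, cells were treated for 48 hours with each compound at five concentrations. Insufficient inhibition: endpoint recorded as highest concentration tested. At the GI50, growth is halved.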 Calls of active or inactive are those of the source. No stated cut-off is given here; in the data, active = GI50 up to about 1.1 µM and inactive = higher.

Tests used:
Assay in all cases: NCI tumour cell line growth inhibition, 48 h
SN12C = test system: SN12C
OVCAR-4 = test system: OVCAR-4
UACC-257 = test system: UACC-257
UACC-62 = test system: UACC-62
T47D = test system: T47D
K562 = test system: K562
Malme-3M = test system: Malme-3M
HOP-92 = test system: HOP-92
SK-MEL-28 = test system: SK-MEL-28
M14 = test system: M14
NCI-H522 = test system: NCI-H522
HL-60 = test system: HL-60
NCI-H226 = test system: NCI-H226
NCI/ADR-RES = test system: NCI/ADR-RES
MCF7 = test system: MCF7
SK-MEL-5 = test system: SK-MEL-5
MDA-N = test system: MDA-N
MDA-MB-435 = test system: MDA-MB-435
CCRF-CEM = test system: CCRF-CEM
COLO 205 = test system: COLO 205
IGROV-1 = test system: IGROV-1
LOX IMVI = test system: LOX IMVI
SW-620 = test system: SW-620
MDA-MB-231 = test system: MDA-MB-231
EKVX = test system: EKVX
RXF 393 = test system: RXF 393
OVCAR-3 = test system: OVCAR-3
A498 = test system: A498
CAKI-1 = test system: CAKI-1
A549 = test system: A549
HT-29 = test system: HT-29
KM12 = test system: KM12
Hs-578T = test system: Hs-578T
786-0 = test system: 786-0
SNB-19 = test system: SNB-19
PC-3 = test system: PC-3
UO-31 = test system: UO-31
SF-268 = test system: SF-268
OVCAR-5 = test system: OVCAR-5
BT-549 = test system: BT-549
HOP-62 = test system: HOP-62
NCI-H460 = test system: NCI-H460
HCT-15 = test system: HCT-15
SK-OV-3 = test system: SK-OV-3
TK-10 = test system: TK-10
OVCAR-8 = test system: OVCAR-8
HCC 2998 = test system: HCC 2998
ACHN = test system: ACHN
NCI-H23 = test system: NCI-H23
HCT-116 = test system: HCT-116
SF-539 = test system: SF-539
MOLT-4 = test system: MOLT-4
SR = test system: SR
U-251 = test system: U-251
SF-295 = test system: SF-295
DU-145 = test system: DU-145
RPMI-8226 = test system: RPMI-8226
SK-MEL-2 = test system: SK-MEL-2

## O=[N+]([O-])c1ccc(Oc2c(Cl)cc(S(=O)(=O)N/C(=N\O)Nc3ccc(Cl)cc3)cc2Cl)cc1
SN12C
  GI50: 12.5 µM (inactive)
OVCAR-4
  GI50: 3.94 µM (inactive)
UACC-257
  GI50: 10.6 µM (inactive)
UACC-62
  GI50: 11.5 µM (inactive)
T47D
  GI50: 7.98 µM (inactive)
K562
  GI50: 13.8 µM (inactive)
Malme-3M
  GI50: 14.8 µM (inactive)
HOP-92
  GI50: 2.31 µM (inactive)
SK-MEL-28
  GI50: 13.9 µM (inactive)
M14
  GI50: 12.6 µM (inactive)
NCI-H522
  GI50: 3.15 µM (inactive)
HL-60
  GI50: 2.47 µM (inactive)
NCI-H226
  GI50: 14 µM (inactive)
NCI/ADR-RES
  GI50: 12.6 µM (inactive)
MCF7
  GI50: 7 µM (inactive)
SK-MEL-5
  GI50: 9.44 µM (inactive)
MDA-N
  GI50: 12 µM (inactive)
MDA-MB-435
  GI50: 13.9 µM (inactive)
CCRF-CEM
  GI50: 8.22 µM (inactive)
COLO 205
  GI50: 15.1 µM (inactive)
IGROV-1
  GI50: 14 µM (inactive)
LOX IMVI
  GI50: 11.1 µM (inactive)
SW-620
  GI50: 13.1 µM (inactive)
MDA-MB-231
  GI50: 11 µM (inactive)
EKVX
  GI50: 11.9 µM (inactive)
RXF 393
  GI50: 13.5 µM (inactive)
OVCAR-3
  GI50: 5.87 µM (inactive)
A498
  GI50: 10.4 µM (inactive)
CAKI-1
  GI50: 5.57 µM (inactive)
A549
  GI50: 13.6 µM (inactive)
HT-29
  GI50: 14.4 µM (inactive)
KM12
  GI50: 13.5 µM (inactive)
Hs-578T
  GI50: 14.6 µM (inactive)
786-0
  GI50: 11.2 µM (inactive)
SNB-19
  GI50: 15.2 µM (inactive)
PC-3
  GI50: 10.4 µM (inactive)
UO-31
  GI50: 5.79 µM (inactive)
SF-268
  GI50: 12.5 µM (inactive)
OVCAR-5
  GI50: 7.66 µM (inactive)
BT-549
  GI50: 12 µM (inactive)
HOP-62
  GI50: 15.2 µM (inactive)
NCI-H460
  GI50: 11.6 µM (inactive)
HCT-15
  GI50: 11.2 µM
SK-OV-3
  GI50: 15.7 µM (inactive)
TK-10
  GI50: 11.2 µM (inactive)
OVCAR-8
  GI50: 12.6 µM (inactive)
HCC 2998
  GI50: 4.1 µM (inactive)
ACHN
  GI50: 11.6 µM (inactive)
NCI-H23
  GI50: 9.98 µM (inactive)
HCT-116
  GI50: 10.5 µM (inactive)
SF-539
  GI50: 13.5 µM (inactive)
MOLT-4
  GI50: 6.11 µM (inactive)
SR
  GI50: 4.02 µM (inactive)
U-251
  GI50: 13 µM (inactive)
SF-295
  GI50: 13.1 µM (inactive)
DU-145
  GI50: 15.1 µM (inactive)
RPMI-8226
  GI50: 5.38 µM (inactive)
SK-MEL-2
  GI50: 10.9 µM (inactive)

## CC(C)(C)C(=O)CC1(O)C=C(O)C(O)(CC(=O)C(C)(C)C)O1 (centres undefined)
SN12C
  GI50: 14.7 µM (inactive)
OVCAR-4
  GI50: 12.8 µM (inactive)
UACC-257
  GI50: 42.3 µM (inactive)
UACC-62
  GI50: 26.5 µM (inactive)
T47D
  GI50: > 100 µM (inactive)
K562
  GI50: 54.8 µM (inactive)
Malme-3M
  GI50: 86.9 µM (inactive)
HOP-92
  GI50: 29.9 µM (inactive)
SK-MEL-28
  GI50: 31.6 µM (inactive)
M14
  GI50: 15.8 µM (inactive)
NCI-H522
  GI50: 20.4 µM (inactive)
HL-60
  GI50: 24.9 µM (inactive)
NCI-H226
  GI50: 18.3 µM (inactive)
NCI/ADR-RES
  GI50: 20.9 µM (inactive)
MCF7
  GI50: 24.8 µM (inactive)
SK-MEL-5
  GI50: 21.2 µM (inactive)
MDA-N
  GI50: 43.2 µM (inactive)
MDA-MB-435
  GI50: 41.9 µM (inactive)
CCRF-CEM
  GI50: 6.46 µM (inactive)
COLO 205
  GI50: 21.7 µM (inactive)
IGROV-1
  GI50: 7.13 µM (inactive)
LOX IMVI
  GI50: 12.5 µM (inactive)
MDA-MB-231
  GI50: 55 µM (inactive)
EKVX
  GI50: 61.1 µM (inactive)
RXF 393
  GI50: 1.84 µM (inactive)
OVCAR-3
  GI50: 59.4 µM (inactive)
A498
  GI50: > 100 µM (inactive)
CAKI-1
  GI50: 13.6 µM (inactive)
A549
  GI50: 61.7 µM (inactive)
HT-29
  GI50: 18.7 µM (inactive)
KM12
  GI50: 63.5 µM (inactive)
Hs-578T
  GI50: 35.2 µM (inactive)
786-0
  GI50: 4.86 µM (inactive)
SNB-19
  GI50: 36.8 µM (inactive)
PC-3
  GI50: 44.8 µM (inactive)
UO-31
  GI50: 29.4 µM (inactive)
SF-268
  GI50: 11.6 µM (inactive)
OVCAR-5
  GI50: > 100 µM (inactive)
BT-549
  GI50: 66.4 µM (inactive)
HOP-62
  GI50: 15.5 µM (inactive)
NCI-H460
  GI50: 10.1 µM (inactive)
HCT-15
  GI50: 8.77 µM
SK-OV-3
  GI50: 29.9 µM (inactive)
TK-10
  GI50: 82.2 µM (inactive)
OVCAR-8
  GI50: 23.6 µM (inactive)
HCC 2998
  GI50: > 100 µM (inactive)
NCI-H23
  GI50: 22.1 µM (inactive)
HCT-116
  GI50: 4.71 µM (inactive)
SF-539
  GI50: 18.8 µM (inactive)
MOLT-4
  GI50: 8.51 µM (inactive)
SR
  GI50: 4.55 µM (inactive)
U-251
  GI50: 36.8 µM (inactive)
SF-295
  GI50: 48.5 µM (inactive)
DU-145
  GI50: 50.2 µM (inactive)
RPMI-8226
  GI50: 19.7 µM (inactive)
SK-MEL-2
  GI50: 38.7 µM (inactive)
